Assay [1] concerns the target T1, Human immunodeficiency virus type 1 protease (Human immunodeficiency virus 1, UniProt Q72874). Description: Compound was tested for inhibitory activity against HIV-1 protease.
Assay [2] addresses T1, Human immunodeficiency virus type 1 protease. Description: Compound was tested for inhibitory activity against HIV-1 protease; Not active.

Molecules are shown by their SMILES.

The text below walks through data of ChEMBL document CHEMBL1135947, “Structure-based design and synthesis of HIV-1 protease inhibitors employing beta-D-mannopyranoside scaffolds” (Bioorg Med Chem Lett, 2002).

As a reminder, the IC50 is the concentration that inhibits the measured activity by half.

`CO[C@@H]1OC(CNC(=O)OCc2ccccc2)[C@@H](O)C(OCc2ccccc2)[C@H]1O` (stereo partly specified) returned an IC50 in assay [1] of 4.66 µM.

For the molecule `CO[C@@H]1OC(CNC(=O)C(C)(C)C)[C@@H](O)C(O)[C@@H]1O` (stereo partly specified), the IC50 result in assay [2] is reported as “Not Active”.

As for `COc1ccc(O[C@@H]2C(CNC(C)=O)O[C@@H](OC)[C@H](O)C2OCc2ccccc2)cc1` (stereo partly specified), inhibition in assay [1] was half-maximal at 7.74 µM (IC50).

Regarding `CO[C@@H]1OC2COC(c3ccccc3)O[C@H]2C(OCc2ccccc2)[C@H]1O` (stereo partly specified), the half-maximal inhibitory concentration (IC50) in assay [1] worked out at 4.85 µM.

In assay [1], `CC(=O)NCC1O[C@@H](Oc2ccccc2)C(O)C(O)[C@@H]1O` (single isomer, unassigned) showed an IC50 of 8.95 µM.

In assay [1], `COc1ccc(O[C@@H]2C(CNC(=O)OCc3ccccc3)O[C@@H](OC)[C@H](O)C2OCc2ccccc2)cc1` (stereo partly specified) had an IC50 of 4.48 µM.
